As usually defined, the inhibition is how much of the control response was suppressed. A lower inhibition goes with little suppression. A word on the EC50: it is the concentration that produces a half-maximal response. Higher therefore signals weaker potency.

For assay [1], the target named is Amyloid-beta precursor protein (Homo sapiens) (UniProt P05067). Kind of assay: Inhibition of amyloid-beta (1 to 42 residues) (unknown origin) aggregation at 20 uM incubated for 6 hrs by ThT fluorescence based spectrofluorimetric analysis relative to control.
Sequence of Amyloid-beta precursor protein (Homo sapiens) (P05067 whole entry, the tested form may be a part): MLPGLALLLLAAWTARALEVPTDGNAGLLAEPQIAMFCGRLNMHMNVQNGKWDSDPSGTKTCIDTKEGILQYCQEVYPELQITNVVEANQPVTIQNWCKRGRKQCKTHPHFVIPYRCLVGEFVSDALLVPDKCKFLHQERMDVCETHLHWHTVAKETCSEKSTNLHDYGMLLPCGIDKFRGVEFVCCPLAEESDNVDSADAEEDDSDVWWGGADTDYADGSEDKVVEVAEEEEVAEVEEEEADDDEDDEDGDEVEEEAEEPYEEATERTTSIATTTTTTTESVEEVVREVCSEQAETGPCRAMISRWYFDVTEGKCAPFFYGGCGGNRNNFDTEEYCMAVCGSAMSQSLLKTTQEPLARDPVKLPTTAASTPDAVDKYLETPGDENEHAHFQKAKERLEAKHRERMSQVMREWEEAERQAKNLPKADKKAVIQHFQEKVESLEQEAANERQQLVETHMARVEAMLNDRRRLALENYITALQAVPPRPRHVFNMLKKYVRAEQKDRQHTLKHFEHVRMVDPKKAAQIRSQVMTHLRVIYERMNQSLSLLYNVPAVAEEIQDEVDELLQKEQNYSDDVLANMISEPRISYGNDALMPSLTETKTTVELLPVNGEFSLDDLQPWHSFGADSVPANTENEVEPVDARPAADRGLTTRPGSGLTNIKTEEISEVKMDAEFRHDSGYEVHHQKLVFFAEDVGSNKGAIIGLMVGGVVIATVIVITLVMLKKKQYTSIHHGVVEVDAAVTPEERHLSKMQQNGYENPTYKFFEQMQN
Assay [2] deals with C-X-C chemokine receptor type 4 (Homo sapiens, UniProt P61073). The experiment in a line: Antagonist activity at CXCR4 (unknown origin). The class given is functional.
Sequence of C-X-C chemokine receptor type 4 (P61073 whole entry, the tested form may be a part): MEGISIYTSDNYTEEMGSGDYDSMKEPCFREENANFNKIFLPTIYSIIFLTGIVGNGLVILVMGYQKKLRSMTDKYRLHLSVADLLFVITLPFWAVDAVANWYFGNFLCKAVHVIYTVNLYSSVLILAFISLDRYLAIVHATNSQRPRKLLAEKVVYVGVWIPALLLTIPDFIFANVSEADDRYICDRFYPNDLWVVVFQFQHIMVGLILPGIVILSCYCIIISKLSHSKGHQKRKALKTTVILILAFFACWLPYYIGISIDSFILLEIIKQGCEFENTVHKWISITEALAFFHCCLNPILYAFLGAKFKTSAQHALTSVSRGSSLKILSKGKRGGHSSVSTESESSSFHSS
Assay [3] addresses Amyloid-beta precursor protein (Homo sapiens) (UniProt P05067). Kind of assay: Inhibition of amyloid-beta (1 to 42 residues) (unknown origin) aggregation at 10 uM incubated for 6 hrs by ThT fluorescence based spectrofluorimetric analysis relative to control.

`CC(C)C[C@H](NC(=O)[C@@H](N)CCCCN)C(=O)N[C@H](C(=O)/C(Cl)=C/N[C@@H](Cc1ccccc1)C(=O)N[C@@H](Cc1ccccc1)C(=O)O)C(C)C` displayed an inhibition in assay [1] of 79.6%.
Consider `N=C(N)NCCC[C@H]1/C=C/[C@@H](CCCNC(=N)N)C(=O)N[C@@H](Cc2ccc3ccccc3c2)C(=O)NCC(=O)N[C@H](Cc2ccc(O)cc2)C(=O)N1`, for which the EC50 in assay [2] came to 1460 nM.
For the compound `CC(C)C[C@H]1NC(=O)[C@H](CCCCN)NC(=O)[C@H](Cc2ccccc2)NC(=O)[C@@H](Cc2ccccc2)N/C=C(\Cl)C(=O)[C@H](C(C)C)NC1=O`, the inhibition in assay [1] was found to be 24.6%; in assay [3] it was 30.1%.
As to `N=C(N)NCCC[C@@H]1NC(=O)[C@@H](Cc2ccc(O)cc2)NC(=O)CNC(=O)[C@H](Cc2ccc3ccccc3c2)NC(=O)[C@H](CCCNC(=N)N)/C=C/1F`, the concentration giving a half-maximal response (EC50) in assay [2] stood at 1780 nM.
In assay [1], `CC(C)C[C@H](NC(=O)[C@@H](N)CCCCN)C(=O)N[C@H](C(=O)N[C@@H](Cc1ccccc1)C(=O)N[C@@H](Cc1ccccc1)C(=O)O)C(C)C` gave an inhibition of 90.2%.
`CC(C)C[C@@H]1NC(=O)[C@@H](CCCCN)NC(=O)[C@@H](Cc2ccccc2)NC(=O)[C@H](Cc2ccccc2)NC(=O)[C@@H](C(C)C)NC1=O`: the inhibition was 20.3% in assay [1] and 77.9% in assay [3].
In turn, `O=c1c(O)c(-c2ccc(O)cc2O)oc2cc(O)cc(O)c12` returned an inhibition in assay [1] of 36%.
